{"source": "paper PMC9032233", "about": "“2-{5-[(Z,2Z)-2-Chloro-3-(4-nitrophenyl)-2-propenylidene]-4-oxo-2-thioxothiazolidin-3-yl}-3-methylbutanoic Acid as a Potential Anti-Breast Cancer Molecule” (International Journal of Molecular Sciences, 2022)", "key": {"[1]": {"assay": "Parallel artificial membrane permeability assay (PAMPA)", "format": "in vitro ADME", "conditions": "200 µM in PBS pH 7.4, 5 h at RT, read-out: permeability coefficient Pe", "experimental": "All in vitro assays used for the evaluation of Les-3331 ADME-Tox parameters were described previously. In brief, for the determination of permeability, Pre-coated PAMPA Plate System Gentest^TM was purchased from Corning (Tewksbury, MA, USA). […] PAMPA plates with compounds added to the donor wells were incubated for 5 h at RT. UPLC-MS Waters ACQUITY—TQD system with the TQ Detector (Waters, Milford, MI, USA) was used next for determination of compounds concentrations in donor and acceptor wells, which were required for calculation of permeability coefficient Pe according to formulas provided by the manufacturer."}, "LC3A [2]": {"tested_on": "LC3A", "assay": "LC3A concentration in MCF-7 cell lysates (ELISA)", "format": "cell-based, human", "conditions": "MCF-7, 5 mM, 24 h; control 6.726 ng/mL", "experimental": "(§1) High sensitivity assay kits (EIAab Science Co., Ltd., Wuhan, China; Abcam plc., Cambridge, United Kingdom; Cloud-Clone Corp., Katy, TX, USA) were used to determine the concentrations of selected proteins in cell lysates […] In brief, after trypsinization, cells were washed thrice with cold PBS and centrifuged at 1000× g for 5 min at 4 °C. Then, cells (1.5 × 10^6) were suspended in lysis buffer for whole-cell lysates. After the second centrifugation, cellular supernatants were frozen immediately at −70 °C. Untreated cancer cells were taken as a control.\n(§2) The microtiter plates provided in the kits were pre-coated with an antibody specific to the analyzed antigen. The tests were carried out according to the manufacturer’s protocols."}, "LC3A [3]": {"tested_on": "LC3A", "assay": "LC3A concentration in MDA-MB-231 cell lysates (ELISA)", "format": "cell-based, human", "conditions": "MDA-MB-231, 5 mM, 24 h; control 2.965 ng/mL", "experimental": "as §1, §2"}, "LC3B [4]": {"tested_on": "LC3B", "assay": "LC3B concentration in MCF-7 cell lysates (ELISA)", "format": "cell-based, human", "conditions": "MCF-7, 5 mM, 24 h; control 1.194 ng/mL", "experimental": "as §1, §2"}, "LC3B [5]": {"tested_on": "LC3B", "assay": "LC3B concentration in MDA-MB-231 cell lysates (ELISA)", "format": "cell-based, human", "conditions": "MDA-MB-231, 5 mM, 24 h; control 1.504 ng/mL", "experimental": "as §1, §2"}, "Beclin-1 [6]": {"tested_on": "Beclin-1", "assay": "Beclin-1 concentration in MCF-7 cell lysates (ELISA)", "format": "cell-based, human", "conditions": "5 mM, 24 h, control 7.965 ng/mL", "experimental": "as §1, §2"}, "Beclin-1 [7]": {"tested_on": "Beclin-1", "assay": "Beclin-1 concentration in MDA-MB-231 cell lysates (ELISA)", "format": "cell-based, human", "set-up": "unit of the concentration uncertain", "conditions": "MDA-MB-231, 5 (unit uncertain), 24 h; control 3.605 ng/mL", "experimental": "as §1, §2"}}, "data": [{"smiles": "Cn1c(=O)c2c(ncn2C)n(C)c1=O", "note": "[caffeine, reference compound]", "values": [{"measurement": "Papp at 5 h, 200 µM", "setting": "[1]", "result": 6.58, "unit": "×10⁻⁶ cm/s"}]}, {"smiles": "Cn1cnc(N)c2ncnc1-2", "note": "[3-MA, 3-Methyladenine]", "values": [{"measurement": "LC3A concentration", "setting": "LC3A [2]", "result": 4.423, "unit": "ng/mL"}, {"measurement": "LC3A concentration", "setting": "LC3A [3]", "result": 0.994, "unit": "ng/mL"}, {"measurement": "LC3B concentration", "setting": "LC3B [4]", "result": 0.664, "unit": "ng/mL"}, {"measurement": "LC3B concentration", "setting": "LC3B [5]", "result": 0.628, "unit": "ng/mL"}, {"measurement": "Beclin-1 concentration", "setting": "Beclin-1 [6]", "result": 6.344, "unit": "ng/mL"}, {"measurement": "Beclin-1 concentration", "setting": "Beclin-1 [7]", "result": 2.399, "unit": "ng/mL"}]}]}
